Patent US9937235B2, “Lipidated peptides as anti-obesity agents” (USTAV ORGANICKE CHEMIE A BIOCHEMIE AKADEMIE VED CR, V.V.I, priority 2012, dated 2018)
Where a SMILES comes first, the peptide text is derived from it. Where no end group is shown, it is not given here. [ ]: non-standard residue; d: D form. The star is where a group is joined. 1Nal = N[C@@H](Cc1cccc2ccccc12)C(=O)O; Myristoyl = CCCCCCCCCCCCCC(=O)*; Nle = CCCC[C@H](N)C(=O)O; Dap = NC[C@H](N)C(=O)O

Key:
[1] = molecular target: T1, rat PrRP receptor (GPR10) in RC-4B/C cells (Rattus norvegicus, UniProt Q64121); experiment: Competitive binding to rat pituitary RC-4B/C cells; conditions: ^125I-rat PrRP31, RC-4B/C cells
T1 construct: host or cells: RC-4B/C rat pituitary cell line
T1 sequence (Q64121 1-370): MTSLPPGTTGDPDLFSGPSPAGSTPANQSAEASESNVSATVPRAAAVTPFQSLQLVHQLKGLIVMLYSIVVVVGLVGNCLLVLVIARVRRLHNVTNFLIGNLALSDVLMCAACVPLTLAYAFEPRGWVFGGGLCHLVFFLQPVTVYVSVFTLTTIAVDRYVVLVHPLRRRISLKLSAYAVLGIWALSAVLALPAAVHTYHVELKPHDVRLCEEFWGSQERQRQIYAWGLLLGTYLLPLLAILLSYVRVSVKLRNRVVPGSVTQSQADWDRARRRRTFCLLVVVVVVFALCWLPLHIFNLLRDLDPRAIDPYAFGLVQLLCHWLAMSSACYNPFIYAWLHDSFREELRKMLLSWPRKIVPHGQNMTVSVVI

fasted C57BL/6 mice [2] = experiment: Food intake in fasted mice after ICV administration; type: in vivo; conditions: 4 nmol/mouse; for % control: food intake vs saline
Method: Male C57BL/6 mice (An Lab, Prague 4) were bred in the accredited animal facility in the Institute of Organic Chemistry and Biochemistry, Czech Academy of Sciences, Prague, at the Institute of Molecular Genetics, Prague 4, at the temperature of 22±2° C. with access to food and water ad libitum. The day/night cycle was 12/12 hours (light turned on at 6:00 am). Animals were treated according to the Animal Protection Act (Act No. 246/1992). The males were fed standard chow diet St-1 (Mlýn Kocanda, Praha, Czech Republic) which contained 66% saccharides, 25% proteins and 9% lipids with a caloric value of 3.4 kcal/g.
The food was withdrawn 17 hours prior to injection of lipidated peptide and free access to water was maintained. The administration of saline, PrRP or lipidated analogs was performed either by SC injection at doses of 1-10 mg/kg (volume 0.2 ml/mouse), or by ICV using infusion pump (cannulae were inserted into the third brain ventricle 4 days before the experiment following the procedure of Maixnerová et al. (Maixnerová et al., 2011)). The single dose of peptide was 4 nmol/mouse (5 μl/mouse).
Fifteen minutes after the lipidated peptide administration, the mice were given pre-weighed food. The food was then weighed every 30 minutes for 5-10 hours. The administration of every dose was performed at least twice and one group of mice consisted of at least 6 mice. The results were presented as % of food intake as compared with the control group injected with saline.
Statistical evaluation was performed using program Graph-Pad Prism Software (San Diego, Calif., USA), and the one-way ANOVA with a subsequent Dunnettovým post-hoc test. The difference in food intake between mice injected with saline and mice injected with the examined peptide were considered statistically significant at P<0.05.

fasted C57BL/6 mice [3] = experiment: Food intake in fasted mice after SC administration; type: in vivo, mouse; conditions: for food intake / % control: SC administration; for % control: food intake vs saline
Method in brief: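 Male C57BL/6 mice, food-deprived 17 h, received saline, PrRP or lipidated analogs either SC at 1-10 mg/kg or ICV into the third ventricle at 4 nmol/mouse.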

[4] = tested on: MAPK/ERK1/2 signaling pathway in RC-4B/C cells; experiment: MAPK/ERK1/2 signaling in RC-4B/C cells (Western blot); type: cell-based, rat; conditions: 10^−6 mol·l^−1, 5 minute incubation
Method: RC-4B/C cells, which were used to determine if lipidated PrRP20 analogs are able to initiate the MAPK/ERK1/2 signaling pathway, were grown in 6-well plates up to the optimal density of […]. Seventeen hours before sample harvest, the growth medium was replaced by a serum-free medium lacking epidermal growth factor (EGF). The respective lipidated PrRP analog was added to each well in the final concentration of 10^−6 mol·l^−1. After a 5 minute incubation at 37° C., the plate was placed on ice and each well was rinsed three times with PBS pH 7.4 (137 mmol·l^−1 NaCl, 2.7 mmol·l^−1 KCl, 8 mmol·l^−1 Na2HPO4.2H2O a 1.76 mmol·l^−1 KH2PO4) and cooled to 4° C. […] Samples were collected in at least three independent experiments.
To determine if the lipidated PrRP20 analogs initiated the MAPK/ERK1/2 signaling pathway, Western blot analysis was used. Electrophoresis was performed on 5%/12% polyacrylamide gel in the presence of SDS (SDS-PAGE) on the instrument MiniProtean 3 (BioRad, Herkules, Calif., USA). Samples that were loaded on the gel were first disintegrated by ultrasound, then heated at 100° C. for 2 minutes, and centrifuged for 5 minutes at 500×g at room temperature. […] Electrophoresis was performed at a constant voltage of 100 V for 10 minutes, or for 60 minutes at 150 V.
To show the presence of phosphorylated proteins in the samples, the proteins from the SDS-PAGE gel were transferred to the Immobilon™-P PVDF (polyvinylidene difluoride) membrane (Sigma-Aldrich, USA). The transfer was performed in blotting buffer at pH 8.3 (25 mmol·l^−1 Tris, 192 mmol·l^−1 glycine and 20% methanol) for 20 hours at 4° C. at a constant voltage of 30 V.
After the protein transfer to the PVDF membrane, the membranes were washed for 5 minutes in TBS washing buffer (20 mmol·l^−1 Tris, 140 mmol·l^−1 NaCl and 0.1% Tween-20) and then incubated for 1 hour in blocking buffer (TBS with 5% non-fat milk powder and 5 mmol·l^−1 Na3VO4 and 50 mmol·l^−1 NaF) at room temperature. Further, the membranes were washed three times for 5 minutes using the TBS washing buffer. The membranes were then incubated with the primary antibody against phospho-p44/42 MAPK(Thr202/Tyr204) (Cell Signaling Technology, Beverly, USA) which was diluted in blocking buffer at 1:1000. After the next three washes with the TBS washing buffer for 5 minutes, the membranes were incubated for 1 hour with rabbit secondary antibody labeled with peroxidase (Sigma, St. Louis, USA) which was diluted in blocking buffer at 1:12,000.
The membranes were then washed three times in TBS washing buffer for 5 minutes and then the solution Femto (Pierce SuperSignal, Thermo Fisher Scientific, Rockford, Ill., USA) was applied. The induced chemiluminiscence was detected by a CCD camera (LAS 3000, Fuji Photo Film GmBH, Düsseldorf, Germany).
To assess the initiation of signaling pathways, a densitometric analysis using the program Quantity One (BioRad, Hercules, Calif., USA) was used. For statistical evaluation of the statistically significant response of the cellular signaling, one-way ANOVA with subsequent Dunnett post-hoc test was used. Data was statistically significant at P<0.05.

DIO C57BL/6 male mice = experiment: 14-day SC administration in diet-induced obese (DIO) mice; type: in vivo, mouse
Method: Inbred C57BL/6 male mice (AnLab, Prague, Czech Republic) were housed at a temperature of 23° C. under a daily cycle of 12 hours light and dark (light from 6:00 a.m.) with free access to water and food pellets (St-1, Mlýn Kocanda, Jesenice, Czech Republic).
At 8 weeks of age, mice were divided into a standard (St) diet-fed group (the energy content of the St-1 diet was 3.4 kcal/g, containing 25, 9, and 66% of calories from protein, fat, and carbohydrate, respectively (St-1, Mlýn Kocanda, Jesenice, Czech Republic)) and a high fat (HF) diet-fed group (the energy content of the HF diet was 5.3 kcal/g, containing 13, 60, and 27% of calories from protein, fat, and carbohydrate, respectively). […] Food intake and body weight were monitored weekly from 9 to 20 weeks of age. Mice resistant to the HF diet were withdrawn from the experiment (approximately 10% of mice).
At the age of 20 weeks, mice were placed into separate cages with free access to food and water. The following week, mice were subjected to a 14-day food intake experiment. They were injected with palm-PrRP31 or myr-PrRP20 dissolved in saline at doses of 5 mg/kg (n=10) or saline twice a day (at 8:00 and 18:00) for 14 days. Consumption of the St or HF diet and the weight of the mice were simultaneously followed.
After 14 days of treatment, mice were fasted overnight and sacrificed the following morning. Their blood sera were isolated, and the white adipose tissue (subcutaneous, abdominal, and gonadal), and the liver of all mice were dissected, weighed, and stored at −70° C. Fat to body weight ratio was calculated as a ratio of adipose tissue weight to body weight.
Serum insulin and leptin concentrations were measured by RIA assays. Serum glucose levels were measured using a Glucocard glucometer (Arkray, Kyoto, Japan). Serum triglyceride levels were measured by quantitative enzymatic reactions (Sigma, St. Louis, USA).
They were analyzed by a one-way ANOVA followed by a Dunnett post-hoc test (metabolic parameters, behavioral study) or two-way ANOVA followed by a Bonferroni post-hoc test (body weight evaluation) using Graph-Pad Software (San Diego, Calif., USA). P<0.05 was considered statistically significant.

[5] = 5 mg/kg SC twice a day, 14 days, 17 h fasted DIO male mice
[6] = serum, 5 mg/kg SC twice a day, 14 days, 17 h fasted DIO male mice
[7] = 45 minutes, dose not stated for these substances
[8] = 300 minutes, dose not stated for these substances

## CCCCCCCCCCCCCC(=O)NC[C@H](N)C(=O)N[C@@H](CCCNC(=N)N)C(=O)N[C@@H](C)C(=O)N[C@@H](Cc1c[nH]cn1)C(=O)N[C@@H](CCC(N)=O)C(=O)N[C@@H](Cc1c[nH]cn1)C(=O)N[C@@H](CO)C(=O)N[C@@H](CCCC)C(=O)N[C@@H](CCC(=O)O)C(=O)N[C@H](C(=O)N[C@@H](CCCNC(=N)N)C(=O)N[C@H](C(=O)N1CCC[C@H]1C(=O)N[C@@H](CC(=O)O)C(=O)N[C@H](C(=O)N[C@@H](CC(N)=O)C(=O)N1CCC[C@H]1C(=O)N[C@@H](C)C(=O)N[C@@H](Cc1c[nH]c2ccccc12)C(=O)N[C@@H](Cc1ccc(O)cc1)C(=O)N[C@H](C(=O)NCC(=O)N[C@@H](CCCNC(=N)N)C(=O)NCC(=O)N[C@H](C(=O)N[C@@H](CCCNC(=N)N)C(=O)N1CCC[C@H]1C(=O)N[C@H](C(=O)NCC(=O)N[C@@H](CCCNC(=N)N)C(=O)N[C@@H](Cc1cccc2ccccc12)C(N)=O)C(C)C)[C@@H](C)CC)[C@@H](C)O)[C@@H](C)CC)[C@@H](C)O)[C@@H](C)O [Analog 9] (H-[Dap](Myristoyl)RAHQHS[Nle]ETRTPDINPAWYTGRGIRPVGR[1Nal]-NH2)
[1]
  % of PrRP31 binding: 167%
Fasted C57BL/6 mice [2]; 45 minutes
  food intake: 0.28 g
  % control: 51%
Fasted C57BL/6 mice [2]; 300 minutes
  food intake: 1.03 g
  % control: 78%
Fasted C57BL/6 mice [3]; SC administration, 1, 2, 5 and 10 mg/kg, FIG. 5 and 6
  dose dependence of the lowering of food intake: dose dependent
Fasted C57BL/6 mice [3]; 45 minutes, 10 mg/kg
  food intake: 0.01 g
  % control: 2%
Fasted C57BL/6 mice [3]; 300 minutes, 10 mg/kg
  food intake: 0.22 g
  % control: 25%
[4]
  ERK signaling: agonist

## CCCCCCCCCCCCCC(=O)N[C@H](C(=O)N1CCC[C@H]1C(=O)N[C@@H](CC(=O)O)C(=O)N[C@H](C(=O)N[C@@H](CC(N)=O)C(=O)N1CCC[C@H]1C(=O)N[C@@H](C)C(=O)N[C@@H](Cc1c[nH]c2ccccc12)C(=O)N[C@@H](Cc1ccc(O)cc1)C(=O)N[C@H](C(=O)NCC(=O)N[C@@H](CCCNC(=N)N)C(=O)NCC(=O)N[C@H](C(=O)N[C@@H](CCCNC(=N)N)C(=O)N1CCC[C@H]1C(=O)N[C@H](C(=O)NCC(=O)N[C@@H](CCCNC(=N)N)C(=O)N[C@@H](Cc1ccccc1)C(N)=O)C(C)C)[C@@H](C)CC)[C@@H](C)O)[C@@H](C)CC)[C@@H](C)O [Analog 10] (Myristoyl-TPDINPAWYTGRGIRPVGRF-NH2)
[1]
  % of PrRP31 binding: 632%
Fasted C57BL/6 mice [2]; 45 minutes
  food intake: 0.28 g
  % control: 51%
Fasted C57BL/6 mice [2]; 300 minutes
  food intake: 1.1 g
  % control: 86%
Fasted C57BL/6 mice [3]; 45 minutes, 5 mg/kg
  food intake: 0.11 g
  % control: 32%
Fasted C57BL/6 mice [3]; 300 minutes, 5 mg/kg
  % control: 44%
[4]
  ERK signaling: agonist

## Myr-PrRP20: myristoylated PrRP20 given to DIO mice; analog number (rat 10 or human 13/55) not stated (Myristoyl-TPDINPAWYASRGIRPVGRF-NH2; ends and bridges not checked; UniProt P81277 34-53, looked up)
DIO C57BL/6 male mice; [5]
  Fat/body weight [%]: 15.30 ± 0.42%
  Liver/body weight [%]: 3.60 ± 0.18 %
DIO C57BL/6 male mice; 5 mg/kg SC twice per day for 14 days, FIG. 9
  Body weight of DIO mice: significantly decreased
DIO C57BL/6 male mice; [6]
  Glucose: 7.52 ± 0.16 mmol/L
  Insulin: 3.54 ± 0.47 ng/mL
  Leptin: 39.56 ± 3.47 ng/mL
  Triglycerides: 68.71 ± 4.16 mg/dL

## TPDINPAWYTGRGIRPVGRF-NH2 [PrRP20, reference compound]
[1]
  % of PrRP31 binding: 143%
Fasted C57BL/6 mice [2]; 45 minutes
  food intake: 0.32 g
  % control: 68%
Fasted C57BL/6 mice [2]; 300 minutes
  food intake: 1.29 g
  % control: 100%
Fasted C57BL/6 mice [3]; [7]
  food intake: 0.32 g
  % control: 100%
Fasted C57BL/6 mice [3]; [8]
  food intake: 1.1 g
  % control: 100%
[4]
  ERK signaling: agonist
